Key:
[1] = tested on: windgrass; experiment: Test Example 5: herbicidal effect by foliage application, plastic box (Table 20, symbol L); format: in vivo, windgrass (Apera spica-venti); conditions: foliage application, 320 g/ha, evaluated three weeks after application
Procedure, shortened: (§1)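 Plants sown in sterilized diluvial soil and grown 14 days in a greenhouse at 25° C to 30° C, then sprayed on the foliage with the compound's emulsion diluted in water to a predetermined herbicide amount. Injury to weeds and crops scored three weeks after application on a visual rating scale.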

[2] = tested on: lambsquarters; experiment: Test Example 4: herbicidal effect by soil treatment (Table 19, symbol O); format: in vivo, lambsquarters (Chenopodium album); conditions: for herbicidal effect rating, O: lambsquarters: 320 g/ha; for O: lambsquarters, herbicidal effect rating: amount of applied herbicide 320 g/ha
Procedure, shortened: (§2)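 Seeds were sown in sterilized diluvial soil and covered with about 1.5 cm of soil. An emulsion formulation diluted with water to a predetermined herbicide amount was sprayed evenly onto the soil surface. Plants grew in a greenhouse at 25° C. to 30° C., and the effect was scored three weeks after application using criteria from an earlier test.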

[3] = tested on: wild oat; experiment: Test Example 4: herbicidal effect by soil treatment (Table 19, symbol I); format: in vivo, wild oat (Avena fatua); conditions: for herbicidal effect rating, I: wild oat: 320 g/ha; for I: wild oat, herbicidal effect rating: amount of applied herbicide 320 g/ha
Procedure, shortened: as §2

[4] = tested on: barnyard grass; experiment: Test Example 3: herbicidal effect by foliage application, Wagner pot (Table 18, symbol H); format: in vivo, barnyard grass (Echinochloa crus-galli); conditions: for herbicidal effect on H (barnyard grass), rating 0-5: 320 g/ha; for herbicidal effect on H: barnyard grass: amount of applied herbicide 320 g/ha
Procedure, shortened: (§3)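 Plants were sown in alluvial soil held under 0.1–0.5 cm standing water and grown 14 days in a greenhouse at 25–30 °C. An emulsifiable formulation, water-diluted to the set dose, was then sprayed onto the foliage, and effects were scored three weeks later using previously defined criteria.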

[5] = tested on: Japanese bulrush; experiment: Test Example 1: herbicidal activity, application before weed generation under submerged conditions (Table 16, symbol B); format: in vivo, Japanese bulrush (Schoenoplectus juncoides); conditions: 320 g/ha applied herbicide
Procedure, shortened: (§4)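 Emulsion formulation, water-diluted to set dose, was put onto the flooded surface (4 cm depth, alluvial soil) the same day weeds were sown and 2.5-leaf rice transplanted. After 3 weeks at 25-30 °C under glass, each species was rated 0 (≤5% kill) to 5 (≥90% kill).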

[6] = tested on: barnyard grass; experiment: Test Example 4: herbicidal effect by soil treatment (Table 19, symbol H); format: in vivo, barnyard grass (Echinochloa crus-galli); conditions: for herbicidal effect rating, H: barnyard grass: 320 g/ha; for H: barnyard grass, herbicidal effect rating: amount of applied herbicide 320 g/ha
Procedure, shortened: as §2

[7] = tested on: velvetleaf; experiment: Test Example 4: herbicidal effect by soil treatment (Table 19, symbol M); format: in vivo, velvetleaf (Abutilon theophrasti); conditions: for herbicidal effect rating, M: velvetleaf: 320 g/ha; for M: velvetleaf, herbicidal effect rating: amount of applied herbicide 320 g/ha
Procedure, shortened: as §2

[8] = tested on: wild oat; experiment: Test Example 5: herbicidal effect by foliage application, plastic box (Table 20, symbol I); format: in vivo, wild oat (Avena fatua); conditions: foliage application, 320 g/ha, evaluated three weeks after application
Procedure, shortened: as §1

[9] = tested on: chickweed; experiment: Test Example 5: herbicidal effect by foliage application, plastic box (Table 20, symbol P); format: in vivo, common chickweed (Stellaria media); conditions: foliage application, 320 g/ha, evaluated three weeks after application
Procedure, shortened: as §1

[10] = tested on: green foxtail; experiment: Test Example 5: herbicidal effect by foliage application, plastic box (Table 20, symbol G); format: in vivo, green foxtail (Setaria viridis); conditions: foliage application, 320 g/ha, evaluated three weeks after application
Procedure, shortened: as §1

[11] = tested on: blackgrass; experiment: Test Example 5: herbicidal effect by foliage application, plastic box (Table 20, symbol J); format: in vivo, blackgrass (Alopecurus myosuroides); conditions: foliage application, 320 g/ha, evaluated three weeks after application
Procedure, shortened: as §1

[12] = tested on: windgrass; experiment: Test Example 4: herbicidal effect by soil treatment (Table 19, symbol L); format: in vivo, windgrass (Apera spica-venti); conditions: for herbicidal effect rating, L: windgrass: 320 g/ha; for L: windgrass, herbicidal effect rating: amount of applied herbicide 320 g/ha
Procedure, shortened: as §2

[13] = tested on: velvetleaf; experiment: Test Example 5: herbicidal effect by foliage application, plastic box (Table 20, symbol M); format: in vivo, velvetleaf (Abutilon theophrasti); conditions: foliage application, 320 g/ha, evaluated three weeks after application
Procedure, shortened: as §1

[14] = tested on: Chinese sprangletop; experiment: Test Example 3: herbicidal effect by foliage application, Wagner pot (Table 18, symbol D); format: in vivo, chinese sprangletop (Leptochloa chinensis); conditions: for herbicidal effect on D (Chinese sprangletop), rating 0-5: 320 g/ha; for herbicidal effect on D: Chinese sprangletop: amount of applied herbicide 320 g/ha
Procedure, shortened: as §3

[15] = tested on: rice flat sedge; experiment: Test Example 3: herbicidal effect by foliage application, Wagner pot (Table 18, symbol E); format: in vivo, rice flat sedge (Cyperus iria); conditions: for herbicidal effect on E (rice flat sedge), rating 0-5: 320 g/ha; for herbicidal effect on E: rice flat sedge: amount of applied herbicide 320 g/ha
Procedure, shortened: as §3

[16] = tested on: oval-leafed pondweed; experiment: Test Example 1: herbicidal activity, application before weed generation under submerged conditions (Table 16, symbol C); format: in vivo, oval-leafed pondweed (Monochoria vaginalis); conditions: 320 g/ha applied herbicide
Procedure, shortened: as §4

[17] = tested on: late watergrass; experiment: Test Example 2: herbicidal activity, application during weed generation under submerged conditions (Table 17, symbol A); format: in vivo, late watergrass (Echinochloa oryzicola); conditions: AAH 320 g/ha; application during weed generation, submerged conditions
Procedure, shortened: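 Alluvial soil in Wagner pots was flooded to 4 cm depth and sown with the three weeds together; pots were kept in a greenhouse at 25° C. to 30° C. At the one to two leaf stage, an emulsion formulation diluted in water to a set rate went onto the water surface; scored three weeks later.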

| SMILES | herbicidal effect on L: windgrass [1] | herbicidal effect rating, O: lambsquarters [2] | herbicidal effect rating, I: wild oat [3] | herbicidal effect on H (barnyard grass), rating 0-5 [4] | Herbicidal effect on B: Japanese bulrush (grade 0-5) [5] | herbicidal effect rating, H: barnyard grass [6] | herbicidal effect rating, M: velvetleaf [7] | herbicidal effect on I: wild oat [8] | herbicidal effect on P: chickweed [9] | herbicidal effect on G: green foxtail [10] | herbicidal effect on J: blackgrass [11] | herbicidal effect rating, L: windgrass [12] | herbicidal effect on M: velvetleaf [13] | herbicidal effect on D (Chinese sprangletop), rating 0-5 [14] | herbicidal effect on E (rice flat sedge), rating 0-5 [15] | Herbicidal effect on C: oval-leafed pondweed (grade 0-5) [16] | herbicidal effect rating, A: late watergrass [17] | O: lambsquarters, herbicidal effect rating [2] | I: wild oat, herbicidal effect rating [3] | herbicidal effect on H: barnyard grass [4] | further results |
| --- | --- | --- | --- | --- | --- | --- | --- | --- | --- | --- | --- | --- | --- | --- | --- | --- | --- | --- | --- | --- | --- |
| CCOc1cc(F)ccc1-c1sc2ccc(F)cc2c1-c1c(O)c(C)nn(C)c1=O [2-084] | 4 (Herbicidal rate of 70% or more and less than 90%) | 5 (Herbicidal rate of 90% or more (almost completely withered)) | 2 (Herbicidal rate of 20% or more and less than 40%) | 5 (Herbicidal rate of 90% or more (almost completely withered)) | 1 (Herbicidal rate of 5% or more and less than 20%) | 4 (Herbicidal rate of 70% or more and less than 90%) | 3 (Herbicidal rate of 40% or more and less than 70%) | 4 (Herbicidal rate of 70% or more and less than 90%) | 5 (Herbicidal rate of 90% or more (almost completely withered)) | 5 (Herbicidal rate of 90% or more (almost completely withered)) | 5 (Herbicidal rate of 90% or more (almost completely withered)) | 1 (Herbicidal rate of 5% or more and less than 20%) | 5 (Herbicidal rate of 90% or more (almost completely withered)) | 4 (Herbicidal rate of 70% or more and less than 90%) | 5 (Herbicidal rate of 90% or more (almost completely withered)) | 2 (Herbicidal rate of 20% or more and less than 40%) | 2 (Herbicidal rate of 20% or more and less than 40%) |  |  |  |  |
| CCCC(=O)Oc1c(C)nn(C)c(=O)c1-c1c(-c2ccc(F)cc2OCC)sc2ccc(F)cc12 [2-085] | 1 (Herbicidal rate of 5% or more and less than 20%) | 3 (Herbicidal rate of 40% or more and less than 70%) | 2 (Herbicidal rate of 20% or more and less than 40%) | 5 (Herbicidal rate of 90% or more (almost completely withered)) | 3 (Herbicidal rate of 40% or more and less than 70%) | 3 (Herbicidal rate of 40% or more and less than 70%) | 0 (Herbicidal rate of 5% or less (almost no effect)) | 3 (Herbicidal rate of 40% or more and less than 70%) | 5 (Herbicidal rate of 90% or more (almost completely withered)) | 3 (Herbicidal rate of 40% or more and less than 70%) | 1 (Herbicidal rate of 5% or more and less than 20%) | 0 (Herbicidal rate of 5% or less (almost no effect)) | 5 (Herbicidal rate of 90% or more (almost completely withered)) | 0 (Herbicidal rate of 5% or less (almost no effect)) | 4 (Herbicidal rate of 70% or more and less than 90%) | 1 (Herbicidal rate of 5% or more and less than 20%) | 2 (Herbicidal rate of 20% or more and less than 40%) |  |  |  |  |
| Cc1nn(C)c(=O)c(-c2c(-c3ccc4c(c3)OCCO4)sc3ccc(F)cc23)c1O [2-092] | 4 (Herbicidal rate of 70% or more and less than 90%) | 5 (Herbicidal rate of 90% or more (almost completely withered)) | 0 (Herbicidal rate of 5% or less (almost no effect)) | 5 (Herbicidal rate of 90% or more (almost completely withered)) | 3 (Herbicidal rate of 40% or more and less than 70%) | 3 (Herbicidal rate of 40% or more and less than 70%) | 5 (Herbicidal rate of 90% or more (almost completely withered)) | 3 (Herbicidal rate of 40% or more and less than 70%) | 5 (Herbicidal rate of 90% or more (almost completely withered)) | 4 (Herbicidal rate of 70% or more and less than 90%) | 4 (Herbicidal rate of 70% or more and less than 90%) | 0 (Herbicidal rate of 5% or less (almost no effect)) | 5 (Herbicidal rate of 90% or more (almost completely withered)) | 4 (Herbicidal rate of 70% or more and less than 90%) | 5 (Herbicidal rate of 90% or more (almost completely withered)) | 2 (Herbicidal rate of 20% or more and less than 40%) | 0 (Herbicidal rate of 5% or less (almost no effect)) |  |  |  |  |
| Cc1nn(C)c(=O)c(-c2c(-c3ccc(C(F)(F)F)cc3)sc3ccc(Cl)cc23)c1O [2-111] | 5 (Herbicidal rate of 90% or more (almost completely withered)) |  |  |  | 3 (Herbicidal rate of 40% or more and less than 70%) |  |  | 0 (Herbicidal rate of 5% or less (almost no effect)) | 5 (Herbicidal rate of 90% or more (almost completely withered)) | 0 (Herbicidal rate of 5% or less (almost no effect)) | 5 (Herbicidal rate of 90% or more (almost completely withered)) |  | 3 (Herbicidal rate of 40% or more and less than 70%) |  |  | 0 (Herbicidal rate of 5% or less (almost no effect)) | 2 (Herbicidal rate of 20% or more and less than 40%) | 4 (Herbicidal rate of 70% or more and less than 90%) | 0 (Herbicidal rate of 5% or less (almost no effect)) | 4 (Herbicidal rate of 70% or more and less than 90%) | H: barnyard grass, herbicidal effect rating [6]: 0 (Herbicidal rate of 5% or less (almost no effect)); M: velvetleaf, herbicidal effect rating [7]: 0 (Herbicidal rate of 5% or less (almost no effect)); L: windgrass, herbicidal effect rating [12]: 5 (Herbicidal rate of 90% or more (almost completely withered)); herbicidal effect on D: Chinese sprangletop [14]: 2 (Herbicidal rate of 20% or more and less than 40%); herbicidal effect on E: rice flat sedge [15]: 3 (Herbicidal rate of 40% or more and less than 70%) |
| CCCC(=O)Oc1c(C)nn(C)c(=O)c1-c1c(-c2ccccc2OC)sc2ccc(C)cc12 [2-139] | 0 (Herbicidal rate of 5% or less (almost no effect)) |  |  |  | 3 (Herbicidal rate of 40% or more and less than 70%) |  |  | 1 (Herbicidal rate of 5% or more and less than 20%) | 5 (Herbicidal rate of 90% or more (almost completely withered)) | 3 (Herbicidal rate of 40% or more and less than 70%) | 2 (Herbicidal rate of 20% or more and less than 40%) |  | 3 (Herbicidal rate of 40% or more and less than 70%) |  |  | 1 (Herbicidal rate of 5% or more and less than 20%) | 3 (Herbicidal rate of 40% or more and less than 70%) | 0 (Herbicidal rate of 5% or less (almost no effect)) | 0 (Herbicidal rate of 5% or less (almost no effect)) | 4 (Herbicidal rate of 70% or more and less than 90%) | H: barnyard grass, herbicidal effect rating [6]: 0 (Herbicidal rate of 5% or less (almost no effect)); M: velvetleaf, herbicidal effect rating [7]: 0 (Herbicidal rate of 5% or less (almost no effect)); L: windgrass, herbicidal effect rating [12]: 0 (Herbicidal rate of 5% or less (almost no effect)); herbicidal effect on D: Chinese sprangletop [14]: 0 (Herbicidal rate of 5% or less (almost no effect)); herbicidal effect on E: rice flat sedge [15]: 4 (Herbicidal rate of 70% or more and less than 90%) |

Reference: patent publication US20230085307A1, “PYRIDAZINONE COMPOUND AND HERBICIDE” (NISSAN CHEMICAL CORPORATION, priority 2019, published 2023)
